Among the data in PubChem BioAssay (NCI) are GI50 and TGI values, retold here.

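Tested at 5 concentrations; 48 h exposure; 96-well plates; endpoints linearly interpolated, else capped at highest concentration. GI50 marks 50% less growth. At the TGI there is no net growth.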

Some test systems named below: RXF 393 renal; EKVX NSCLC; KM12 colon; SW-620 colon; SK-MEL-5 melanoma; PC-3 prostate; SN12C renal; SF-539 CNS; OVCAR-4 ovarian; SR leukemia.
Assay in all cases: NCI tumour cell line growth inhibition, 48 h

For `C=C1C(=O)O[C@H]2[C@H]1CC/C(COC(=O)NCc1ccc(Cn3c(=O)sn(CCCCl)c3=O)cc1)=C\CC[C@@]1(C)O[C@@H]21`, the GI50 in the experiment on RXF 393 renal was 1.35 µM; in the experiment with EKVX NSCLC, 2.82 µM; with KM12 colon, 4.92 µM; in the experiment on SW-620 colon, 1.23 µM; with SK-MEL-5 melanoma, 3.72 µM; in the experiment with PC-3 prostate it was 2.13 µM. Besides, the GI50 with SN12C renal is 1.36 µM; in the experiment on SF-539 CNS, 1.74 µM; in the experiment with OVCAR-4 ovarian, 1.67 µM. For the same molecule, the TGI turned out to be 2.8 µM in the experiment with RXF 393 renal; 12.2 µM in the experiment with EKVX NSCLC; 17.5 µM in the experiment with KM12 colon; 3.31 µM in the experiment on SW-620 colon; 14.1 µM with SK-MEL-5 melanoma; 5.05 µM in the experiment with PC-3 prostate. The TGI in the experiment on SN12C renal worked out at 3.15 µM; with SF-539 CNS it was 3.3 µM; with OVCAR-4 ovarian it was 3.83 µM.

Turning to `Cc1c(C(=O)c2ccccc2C(=O)O)c2ccccc2n1C`, the TGI in the experiment with RXF 393 renal, in the experiment on EKVX NSCLC, in the experiment on KM12 colon, in the experiment with SW-620 colon, with SK-MEL-5 melanoma and with SF-539 CNS was above 100 µM each time. Also, the TGI with OVCAR-4 ovarian was above 100 µM.

As to `CC1(C)OC(=O)C=C([O-])O1.CC1(C)OC(=O)C=C([O-])O1.O=S(=O)([O-])c1ccc([O-])c2ncccc12.O=S(=O)([O-])c1ccc([O-])c2ncccc12.[Ti+4]`, the GI50 in the experiment with RXF 393 renal is above 100 µM; in the experiment on EKVX NSCLC it was above 100 µM; in the experiment on KM12 colon, above 100 µM; with SW-620 colon, above 100 µM; in the experiment with SK-MEL-5 melanoma, 92 µM; in the experiment with SN12C renal it was above 100 µM. The GI50 in the experiment with SF-539 CNS is 78.5 µM; in the experiment with OVCAR-4 ovarian, above 100 µM. Moreover, the TGI with RXF 393 renal, with EKVX NSCLC, with KM12 colon, in the experiment with SW-620 colon, in the experiment on SK-MEL-5 melanoma and in the experiment on SN12C renal was above 100 µM in each case. For the same molecule, the TGI in the experiment on SF-539 CNS and in the experiment with OVCAR-4 ovarian was above 100 µM each time.

Regarding `CN1c2ccccc2N(C)C2C1N(C)c1ccccc1N2C` (configuration not stated), the TGI in the experiment with RXF 393 renal is 32.6 µM; in the experiment on EKVX NSCLC it was above 100 µM; in the experiment on KM12 colon, above 100 µM; with SW-620 colon, above 100 µM; in the experiment with SK-MEL-5 melanoma, 18.4 µM; in the experiment with SN12C renal, above 100 µM. Also, the TGI in the experiment with SF-539 CNS was 45.8 µM; in the experiment with OVCAR-4 ovarian, above 100 µM.

For the molecule `CO/C1=C\C(C)=C\C(C)C(O)C(C)C/C(C)=C/C=C/C(OC)C(C(C)C(O)C(C)C2(O)CC(O)C(C)C(C(C)C)O2)OC1=O` (configuration not stated), the GI50 in the experiment with RXF 393 renal was 11.1 µM. In addition, the TGI was found to be 4.93 µM in the experiment on EKVX NSCLC; 15 µM in the experiment with KM12 colon; 0.00177 µM in the experiment on SK-MEL-5 melanoma; 17.6 µM with SN12C renal; 0.0827 µM in the experiment with SF-539 CNS; 15.6 µM with OVCAR-4 ovarian.

For `CN(C)C(N)=NC#N`, the TGI was 74.8 µM in the experiment with RXF 393 renal; above 100 µM in the experiment on EKVX NSCLC; above 100 µM in the experiment on KM12 colon; 38.2 µM with SW-620 colon; above 100 µM in the experiment with SK-MEL-5 melanoma; above 100 µM in the experiment on SN12C renal. The TGI in the experiment on SF-539 CNS and in the experiment with OVCAR-4 ovarian was above 100 µM throughout.

On to `COc1cc2c3c(n(CCCNCCN)c(=O)c2cc1OC)-c1cc2c(cc1C3=O)OCO2`, for which the GI50 is 5.36 µM with RXF 393 renal; 4.58 µM in the experiment with EKVX NSCLC; 1.48 µM in the experiment with KM12 colon; 0.377 µM with SW-620 colon; 0.978 µM in the experiment on SK-MEL-5 melanoma; 2.13 µM with PC-3 prostate. Moreover, the GI50 in the experiment with SN12C renal is 0.351 µM; with SF-539 CNS it was 0.39 µM; with OVCAR-4 ovarian, 0.475 µM. In addition, the TGI with RXF 393 renal was above 51.8 µM; in the experiment with EKVX NSCLC, 17.2 µM; in the experiment on KM12 colon, 7.19 µM; in the experiment on SW-620 colon it was 3.9 µM; in the experiment on SK-MEL-5 melanoma, 6.77 µM; with PC-3 prostate, 14.9 µM. The values for the TGI in the experiment with SN12C renal, with SF-539 CNS and in the experiment with OVCAR-4 ovarian were 4.35 µM, 2.22 µM and 2.47 µM, respectively.

`Clc1ccc2[nH]cc(-c3nc(-c4c[nH]c5ncccc45)cs3)c2c1`: the GI50 with RXF 393 renal is 2.69 µM; with EKVX NSCLC, 2.16 µM; in the experiment with KM12 colon, 3.17 µM; in the experiment on SW-620 colon, 3.08 µM; with SK-MEL-5 melanoma it was 2.98 µM; in the experiment with PC-3 prostate, 3.5 µM. Besides, the GI50 was 4.78 µM in the experiment with SN12C renal, 4.97 µM in the experiment on SF-539 CNS and 2.85 µM with OVCAR-4 ovarian. The TGI in the experiment on RXF 393 renal was 11.4 µM; in the experiment on EKVX NSCLC, 22.3 µM; with KM12 colon it was 12.2 µM; in the experiment with SW-620 colon, 11.6 µM; in the experiment with SK-MEL-5 melanoma, 12.5 µM; in the experiment on PC-3 prostate, 28 µM. Besides, the TGI with SN12C renal was determined as 20.9 µM; in the experiment with SF-539 CNS, 21.2 µM; in the experiment with OVCAR-4 ovarian it was 36.5 µM.

For `CN(C)CCCN1c2nc3ccccc3cc2Sc2cc3ccccc3nc21`, the GI50 with EKVX NSCLC is 1.5 µM; in the experiment with KM12 colon, 1.51 µM; in the experiment on SW-620 colon, 1.48 µM; in the experiment with SK-MEL-5 melanoma, 1.59 µM; with PC-3 prostate, 1.36 µM; in the experiment with SN12C renal, 1.28 µM. Besides, the GI50 in the experiment with SF-539 CNS is 1.61 µM. Further, the TGI came to 3.23 µM in the experiment with EKVX NSCLC; 2.88 µM in the experiment on KM12 colon; 2.88 µM in the experiment on SW-620 colon; 3.04 µM in the experiment on SK-MEL-5 melanoma; 2.74 µM with PC-3 prostate; 2.55 µM in the experiment with SN12C renal. In addition, the TGI in the experiment with SF-539 CNS was determined as 2.97 µM.

`Cn1ncc2c(N)nc(N3CCCCC3)nc21`: the GI50 was 18.2 µM with RXF 393 renal; 91.2 µM in the experiment with EKVX NSCLC; 26.2 µM in the experiment on KM12 colon; 31 µM with SW-620 colon; 18.4 µM with SK-MEL-5 melanoma; 33.5 µM in the experiment on PC-3 prostate. Besides, the results for the GI50 in the experiment with SN12C renal, in the experiment with SF-539 CNS and with OVCAR-4 ovarian were 28.5 µM, 25.4 µM and 27.2 µM, respectively. Besides, the TGI with RXF 393 renal was 58.7 µM; in the experiment with EKVX NSCLC, above 100 µM; in the experiment with KM12 colon, 82.8 µM; with SW-620 colon, above 100 µM; with SK-MEL-5 melanoma it was 33.8 µM; in the experiment on PC-3 prostate, above 100 µM. Further, the TGI was 75.2 µM in the experiment with SN12C renal, above 100 µM in the experiment with SF-539 CNS and above 100 µM in the experiment on OVCAR-4 ovarian.

Regarding `C(CCC[Te][Te]CCCCCCOC1CCCCO1)CCOC1CCCCO1` (configuration not stated), the TGI with KM12 colon was 28.9 µM; in the experiment on SW-620 colon, 45.2 µM; in the experiment on SR leukemia, 38.2 µM; in the experiment with SN12C renal, 29.4 µM; in the experiment on SF-539 CNS, 32.1 µM.
